Data as given in ChEMBL document CHEMBL1201862, “PubChem BioAssay data set” (2004).
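48-hour exposure; five concentrations; linearly interpolated endpoints. GI50 marks 50% less growth.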 The source made the active and inactive calls. Cut-off read from the data, not from the text of the source: active = GI50 up to about 1.1 µM and inactive = higher.

Experiments:
Test in all cases: inhibition of tumour cell growth, NCI panel, 48 h
SW-620 = test system: SW-620
SF-268 = test system: SF-268
COLO 205 = test system: COLO 205
OVCAR-8 = test system: OVCAR-8
NCI-H460 = test system: NCI-H460
NCI-H23 = test system: NCI-H23
Malme-3M = test system: Malme-3M
SF-295 = test system: SF-295
RPMI-8226 = test system: RPMI-8226
UACC-257 = test system: UACC-257
SNB-19 = test system: SNB-19
IGROV-1 = test system: IGROV-1
HOP-62 = test system: HOP-62
KM12 = test system: KM12
RXF 393 = test system: RXF 393
TK-10 = test system: TK-10

Row | Structure (SMILES) | GI50 (SW-620) | GI50 (SF-268) | GI50 (COLO 205) | GI50 (OVCAR-8) | GI50 (NCI-H460) | GI50 (NCI-H23) | GI50 (Malme-3M) | GI50 (SF-295) | GI50 (RPMI-8226) | GI50 (UACC-257) | GI50 (SNB-19) | GI50 (IGROV-1) | GI50 (HOP-62) | GI50 (KM12) | GI50 (RXF 393) | GI50 (TK-10)
1 | Cc1ccc2c(ccc(/C=C\c3cc(C)c4cccnc4c3O)[n+]2C)c1 | 1.66 µM (inactive) | 9.25 µM (inactive) | 9.89 µM (inactive) | 0.912 µM (active) | 0.439 µM (active) | 2.67 µM (inactive) | 8.41 µM (inactive) | 10 µM (inactive) | 0.401 µM (active) | 11.7 µM (inactive) | 6.08 µM (inactive) | 6.24 µM (inactive) | 5.5 µM (inactive) | 1.32 µM (inactive) |  | 
2 | O=C1CC[C@@H](S(=O)(=O)c2ccccc2)[C@@H](/C=C/c2ccccc2)O1 | > 100 µM (inactive) |  | > 100 µM (inactive) | > 100 µM (inactive) | > 100 µM (inactive) | > 100 µM (inactive) | > 100 µM (inactive) | > 100 µM (inactive) | > 100 µM (inactive) | > 100 µM (inactive) | > 100 µM (inactive) | > 100 µM (inactive) | > 100 µM (inactive) | > 100 µM (inactive) | > 100 µM (inactive) | > 100 µM (inactive)
3 | O=[N+]([O-])c1cnn(C2=CNc3ccccc3N=C2)c1 |  | > 100 µM (inactive) | > 100 µM (inactive) | > 100 µM (inactive) | > 100 µM (inactive) | > 100 µM (inactive) | > 100 µM (inactive) | > 100 µM (inactive) |  | > 100 µM (inactive) | > 100 µM (inactive) |  | > 100 µM (inactive) |  | 46.7 µM (inactive) | > 100 µM (inactive)
4 | N#CC(C#N)=c1ccc(=C2NCC3CCCN23)cc1 (stereo unspecified) | > 100 µM (inactive) | > 100 µM (inactive) | > 100 µM (inactive) | > 100 µM (inactive) | > 100 µM (inactive) |  | > 100 µM (inactive) | > 100 µM (inactive) | > 100 µM (inactive) | > 100 µM (inactive) | > 100 µM (inactive) | > 100 µM (inactive) | > 100 µM (inactive) | > 100 µM (inactive) | > 100 µM (inactive) | > 100 µM (inactive)
5 | Cc1ccc(C(=O)NCCN(C)C)c2nc3ccccc3cc12 | 0.445 µM (active) |  | 1.57 µM (inactive) | 0.622 µM (active) | 0.34 µM (active) |  | 2.54 µM (inactive) | 1.07 µM (active) | 4.24 µM (inactive) | 1.3 µM (inactive) | 2.36 µM (inactive) | 6.58 µM (inactive) | 8.24 µM (inactive) | 1.1 µM (active) | 1.29 µM (inactive) | 1.54 µM (inactive)
6 | COC(=O)[C@@]12C3=NO[C@]1(C(=O)OC)C(O[Si](C)(C)C(C)(C)C)C1OC(C)(C)OC1[C@@H]2[C@@H](OCc1ccccc1)CC3 (stereo partly specified) | > 100 µM (inactive) |  | 83.8 µM (inactive) | > 100 µM (inactive) |  | 58.7 µM (inactive) |  | > 100 µM (inactive) | 6.1 µM (inactive) |  | > 100 µM (inactive) | > 100 µM (inactive) |  | 7.73 µM (inactive) |  | > 100 µM (inactive)
7 | CC(C)(C)CC(C)(C)NCC(O)COc1ccc(C(C)(C)c2ccc(OCC(O)CNC(C)(C)CC(C)(C)C)cc2)cc1 (stereo unspecified) | 0.213 µM (active) | 1.86 µM (inactive) | 0.376 µM (active) | 1.64 µM (inactive) | 0.46 µM (active) | 1.76 µM (inactive) | 1.59 µM (inactive) | 1.68 µM (inactive) | 1.46 µM (inactive) |  | 1.64 µM (inactive) | 1.77 µM (inactive) | 1.77 µM (inactive) | 1.56 µM (inactive) | 1.82 µM (inactive) | 
8 | Oc1cc(-c2ccc3c(c2)OCO3)nc2cc3c(cc12)OCO3 | 35.8 µM (inactive) |  | 31.5 µM (inactive) | 25.7 µM (inactive) | 40.2 µM (inactive) | 32.4 µM (inactive) | 21.2 µM (inactive) |  | 37.5 µM (inactive) |  | 54.3 µM (inactive) | > 100 µM (inactive) | 22.9 µM (inactive) | 36.1 µM (inactive) |  | 63.8 µM (inactive)
